Experimental data taken from patent US20240368168A1, “SARM1 ENZYME ACTIVITY INHIBITOR AND APPLICATION THEREOF” (ARTIVILA BIOPHARMA, priority 2021, published 2024).

Key:
dN-SARM1 protein [1] = biological target: T1, dN-SARM1 protein (Homo sapiens, UniProt Q6SZW1); experiment: In vitro biochemical assay for inhibiting SARM1 enzymatic activity (% inhibition rate), PC6 fluorescence method; details: 20 μM compound; 50 μM NAD, 50 μM PC6, 50 μM NMN activator
T1 construct: the N-terminal mitochondrial localization signal peptide of SARM1 was removed
T1 sequence (Q6SZW1 28-724): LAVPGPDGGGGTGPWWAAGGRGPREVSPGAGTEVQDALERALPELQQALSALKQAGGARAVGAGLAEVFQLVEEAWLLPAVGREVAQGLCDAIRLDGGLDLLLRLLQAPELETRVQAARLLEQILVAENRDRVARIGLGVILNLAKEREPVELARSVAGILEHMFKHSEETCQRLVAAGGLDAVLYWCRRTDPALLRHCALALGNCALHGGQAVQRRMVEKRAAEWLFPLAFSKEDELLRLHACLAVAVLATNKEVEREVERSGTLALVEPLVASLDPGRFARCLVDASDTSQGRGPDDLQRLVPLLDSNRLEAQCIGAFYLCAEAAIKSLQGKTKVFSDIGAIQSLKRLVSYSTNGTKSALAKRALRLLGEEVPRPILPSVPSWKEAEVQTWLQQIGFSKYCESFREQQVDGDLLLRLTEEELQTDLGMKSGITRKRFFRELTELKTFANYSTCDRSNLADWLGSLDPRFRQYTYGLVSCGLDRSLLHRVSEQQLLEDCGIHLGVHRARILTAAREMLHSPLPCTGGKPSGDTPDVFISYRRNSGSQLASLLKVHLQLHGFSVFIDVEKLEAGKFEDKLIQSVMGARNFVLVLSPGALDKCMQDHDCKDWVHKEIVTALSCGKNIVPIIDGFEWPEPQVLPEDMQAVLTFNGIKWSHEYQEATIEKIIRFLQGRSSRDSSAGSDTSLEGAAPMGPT
Method: The compounds were subjected to PC6 fluorescence method measurement [Chinese Patent 202010528147.3] using the dN-SARM1 protein obtained through “(4) Protein extraction” in “Expression and purification of SARM1 protein” in the above biological activity example 1.
First, 0.05 μg/ml dN-SARM1 and 20 μM compound were incubated in 50 mM Tris-HCl (pH 7.5) solution for 10 min, and then added with 50 μM NAD and 50 μM PC6 as substrate and 50 μM NMN as activator for 30 minutes of reaction at room temperature. The concentration of each component was the final concentration in the reaction system.
During the reaction, PC6 fluorescence spectrum dynamics were detected by a microplate reader, wherein the excitation wavelength and emission wavelength for detection were 390 nm and 520 nm, respectively. Finally, the reaction rate was used to express the activity of the protein. The higher the reaction rate, the stronger the activity of the protein and the lower the inhibitory efficiency of the compound.

dN-SARM1 protein [2] = biological target: T1, dN-SARM1 protein; experiment: In vitro biochemical assay for inhibiting SARM1 enzymatic activity (IC50), PC6 fluorescence method; details: 50 μM NAD, 50 μM PC6, 50 μM NMN activator
Summary of the method: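 dN-SARM1 (0.05 μg/ml, 50 mM Tris-HCl pH 7.5) preincubated 10 min at room temperature with compound in serial dilution from 200 μM. Reaction started with final 50 μM NAD, 50 μM PC6 substrate and 50 μM NMN activator, 30 min at room temperature. PC6 fluorescence (ex 390/em 520 nm) rate gives activity; IC50 derived.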

[3] = biological target: T2, SARM1 protein in iSARM1 (HEK293) cells (Homo sapiens, UniProt Q6SZW1); experiment: Inhibitory activity in inducible SARM1 overexpressing cell line, intracellular cADPR level; type: cell-based; details: activator CZ-48 100 μM, cADPR content
T2 construct: The full-length SARM1 was synthesized into the pUC57 plasmid by WZ Biosciences Inc., and PCR was performed using pUC57-SARM1 as a DNA template
T2 sequence (Q6SZW1 28-724): T1 sequence (Q6SZW1 28-724)
Summary of the method: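 Inducible SARM1-overexpressing HEK293 cells preincubated 1.5 h with inhibitor (50 μM final), then activated with 100 μM CZ-48 for 16 h. Intracellular cADPR extracted with perchloric acid, NAD+ removed by NADase, and quantified by cyclase-coupled resazurin cycling assay (Ex/Em 544/599, 30 min kinetics) against cADPR standards; inhibition rate and IC50 calculated.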

Row | Compound | inhibition at 20 µM (dN-SARM1 protein [1]) [%] | IC50 (dN-SARM1 protein [2]) [µM] | EC50 [3] [µM]
1 | CNc1ccc2ncc(C(=O)Nc3ccccc3)n2c1 [Compound 105, 6-(methylamino)-N-phenylimidazo[1,2-a]pyridin-3-carboxamide] | > 90 | 1 to 10 | 1 to 10
2 | CN(C(=O)OC(C)(C)C)c1ccc2ncc(-c3cccc(NC(=O)COCCOCCOCC(=O)Nc4cccc5c4CN(C4CCC(=O)NC4=O)C5=O)c3)n2c1 (stereo not drawn) [Compound 115, tert-butyl (3-(3-(2-(2-(2-(2-((2-(2,6-dioxopiperidin-3-yl))-1-oxoisoindolin-4-yl)amino)-2-oxoethoxy)ethoxy)ethoxy)acetamido)phenyl)imidazo[1,2-a]pyridin-6-yl)(methyl) carbamate] | > 90 | < 1 | 1 to 10
3 | CC(C)(C)OC(=O)Nc1ccc2ncc(-c3cccc(NC(=O)COCCOCC(=O)Nc4cccc(-c5cnc6ccc(NC(=O)OC(C)(C)C)cn56)c4)c3)n2c1 [Compound 122] | > 90 | < 1 | < 1

Second part, the molecule after the results:

Row | inhibition at 20 µM (dN-SARM1 protein [1]) [%] | IC50 (dN-SARM1 protein [2]) [µM] | EC50 [3] [µM] | Compound
4 | > 90 | < 1 | < 1 | CC(C)(C)OC(=O)Nc1ccc2ncc(-c3cccc(NC(=O)COCCOCCOCC(=O)Nc4cccc(-c5cnc6ccc(NC(=O)OC(C)(C)C)cn56)c4)c3)n2c1 [Compound 123]
5 | > 90 | < 1 | 1 to 10 | COCCOCC(=O)Nc1cccc(-c2cnc3ccc(NC(=O)C4CC4)cn23)c1 [Compound 129, N-(3-(3-(2-(2-methoxyethoxy)acetamido)phenyl)imidazo[1,2-a]pyridin-6-yl)cyclopropanecarboxamide]
6 | > 90 | < 1 | 1 to 10 | COCCOCC(=O)Nc1cccc(-c2cnc3ccc(NC(=O)C(C)(C)C)cn23)c1 [Compound 130]
